The values below come from patent publication US20020137152A1, “Fermentation process for epothilones” (priority 2000, published 2002).

Data set [1] has as its system breast and colon tumor cell lines. The settings on record: Hofle et al., 1996; cited from earlier work.
Another data set deals with eukaryotic cells. The settings on record: cited from earlier work; for cytotoxic activity against eukaryotic cells: Hofle et al., 1996; for cytotoxicity relative to epothilones A and B: desoxy counterparts compared with epothilones A and B.
The test system of data set [2] is Sorangium cellulosum strain So ce 90. The experiment in a line: Production of epothilones A, B, C and D by So ce 90 fermented in the presence of a P450 inhibitor, HPLC quantitation. It counts as cell-based. To be noted: 10 mM metyrapone in production medium, 7 days. The protocol: (§1) To prepare a seed culture, transfer cells from the DSM 6773 ampoule into a 250 mL baffled Erleneyer flask with 38 mm silicone foam closures containing 50 mL of sterile soybean meal. Soybean meal contains potato starch (Product No. S-2004, Sigma), 8 g/L; defatted soybean meal (Type 4890, Archer Daniels Midland), 2 g/L; yeast extract (Product No. BP 1422-500, Fisher Biotech), 2g/L; Iron (III) sodium salt EDTA (Product No. EDFS, Sigma), 0.008 g/L; MgSO4.7H20 (Product No. M-5921, Sigma), 1 g/L; CaCl2.2H20 (Product No. C-3991, Sigma), 1 g/L; glucose (Product No. G-5400, Sigma), 2g/L; HEPES buffer (Product No. H-3375, Sigma), 11.5 g/L. Use deionized water, and adjust pH to 7.4 with 10% KOH. Sterilize the flasks by autoclaving at 121° C. for at least 30 minutes. After autoclaving, add 2-3 drops of antifoam B to prevent foaming. Incubate the culture at 32° C. in a 250 RPM shaker for 4 days. After 4 days, the culture should appear an orange color. Production cultures were prepared by sterilizing 50 mL of sterile soybean meal medium and 1 g of Amberlite XAD-16 absorption resin in a 250 mL baffled Erlenmeyer flask. Metyrapone (Product No. 856525, Sigma) is prepared by reconstituting to a final concentration of 2.5 M with 50:50 (v/v) DMSO:H2O. Metyrapone was added to a final concentration of 5 mM and 10 mM in each flask. 5 mL of the seed culture was inoculated to each flask and incubated at 30° C. in a shaker at 250 RPM for 7 days.
To extract epothilone C and/or D, transfer the culture into a 50 mL centrifuge tube (Product no. 21008-178, VWR Scientific Products). Decant the excess medium in the centrifuge tube without pouring off any of the resin. Wash the XAD-16 resin with 25 mL of H2O and allow the XAD-16 resin to settle by gravity in the tube. Carefully decant the H2O, and add 20 mL of 100% methanol to the tube. Place the centrifuge tube on a shaker at 175 RPM for 20-30 minutes to extract the epothilone products from the resin. Allow the XAD-16 pellets to settle, and transfer 2 mL using a pipette to a HPLC tube (Product nos. C4010-13, C4010-60A, National Scientific Company). Quantitation of epothilones C and D was performed by HPLC analysis with UV-DAD detection at 250 nm. 50 uL of the methanol extract was injected across a 4.6×10 mm guard column (Inertsil, C18 OD 53, 5um) and a 4.6 x 150 mm […] (Inertisil, C18 OD 53, 5 um). The assay method was isocratic, eluting with 60% acetonitrile and 40% water for 18 minutes at a flow rate of 1 ml/min. Under these conditions, epothilone C was detected at 10.3 minutes and epothilone D was detected at 13.0 minutes. The results showing the highest production of epothilones C and D, and the lowest production of epothilones A and B, in the presence of metyrapone and various other inhibitors is shown in FIG. 1. […]

Data set [3] shares this test system. The experiment in a line: Effect of metyrapone on growth of So ce 90 (FIG. 2). The format is cell-based. The settings on record: metyrapone at 5 mM and 10 mM. How it is done:
as §1, with “Production cultures were prepared by sterilizing 50 mL of sterile soybean meal medium and 1 g of Amberlite XAD-16 absorption resin in a 250 mL baffled Erlenmeyer flask. Metyrapone (Product No. 856525, Sigma) is prepared by reconstituting to a final concentration of 2.5 M with 50:50 (v/v) DMSO:H2O. Metyrapone was added to a final concentration of 5 mM and 10 mM in each flask. 5 mL of the seed culture was inoculated to each flask and incubated at 30° C. in a shaker at 250 RPM for 7 days.” left out
To extract epothilone C and/or D, transfer the culture into a 50 mL centrifuge tube (Product no. 21008-178, VWR Scientific Products). […] Quantitation of epothilones C and D was performed by HPLC analysis with UV-DAD detection at 250 nm. […] Under these conditions, epothilone C was detected at 10.3 minutes and epothilone D was detected at 13.0 minutes. […]

The target of the next data set is T1, EpoK (Sorangium cellulosum, UniProt Q9KIZ4).
T1 construct: His6 (six histidine residues); made in house; host or cells: E. coli BL21(DE3) with pREP4-groELS; plasmids pKOS55-121 (N-terminal his) and pKOS55-129 (C-terminal his) in pET22b
T1 sequence (Q9KIZ4 1-419): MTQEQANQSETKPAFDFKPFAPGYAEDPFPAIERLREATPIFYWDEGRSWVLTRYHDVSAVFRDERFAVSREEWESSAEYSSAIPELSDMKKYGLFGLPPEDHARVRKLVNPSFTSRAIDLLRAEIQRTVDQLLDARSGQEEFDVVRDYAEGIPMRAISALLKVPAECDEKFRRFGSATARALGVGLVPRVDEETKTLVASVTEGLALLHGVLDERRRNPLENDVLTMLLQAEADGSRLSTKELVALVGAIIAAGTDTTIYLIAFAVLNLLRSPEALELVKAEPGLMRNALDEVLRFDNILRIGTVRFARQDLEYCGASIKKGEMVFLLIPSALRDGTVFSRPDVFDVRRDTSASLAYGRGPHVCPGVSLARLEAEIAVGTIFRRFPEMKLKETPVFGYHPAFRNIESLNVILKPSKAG
Nature of the data set: EpoK assay: conversion of epothilone D to epothilone B by recombinant his-tagged EpoK, LC/MS. The format is biochemical. The settings on record: 30° C., 67 minutes. An excerpt:
This Example describes the construction of E. coli expression vectors for heterologous expression of the Sorangium cellulosum epoK gene. The E. coli produced EpoK enzyme can be used in assays to identify inhibitors for use in the methods of the invention. The epoK gene product was expressed in E. coli as a fusion protein with a polyhistidine tag (his tag). The fusion protein was purified and used to convert epothilone D to epothilone B. This assay can be readily adapted to identify EpoK inhibitors.
Purification of EpoK was performed as follows. Plasmids pKOS55-121 and pKOS55-129 were transformed into BL21(DE3) containing the groELS expressing plasmid pREP4-groELS (Caspers et al., 1994, Cellular and Molecular Biology 40(5):635-644). The strains were inoculated into 250 mL of M9 medium supplemented with 2 mM MgSO4, 1% glucose, 20 mg thiamine, 5 mg FeCl2, 4 mg CaCl2 and 50 mg levulinic acid. The cultures were grown to an OD600 between 0.4 and 0.6, at which point IPTG was added to 1 mM, and the cultures were allowed to grow for an additional two hours. The cells were harvested and frozen at −80° C. The frozen cells were resuspended in 10 ml of buffer 1 (5 mM imidizole, 500 mM NaCl, and 45 mM Tris pH 7.6) and were lysed by sonicating three times for 15 seconds each on setting 8. The cellular debris was pelleted by centrifugation in an SS-34 rotor at 16,000 rpm for 30 minutes. The supernatant was removed and centrifuged again at 16,000 rpm for 30 minutes. The supernatant was loaded onto a 5 mL nickel column (Novagen), after which the column was washed with 50 mL of buffer 1 (Novagen). EpoK was eluted with a gradient from 5 mM to 1M imidizole. Fractions containing EpoK were pooled and dialyzed twice against 1 L of dialysis buffer (45 mM Tris pH7.6, 0.2 mM DTT, 0.1 mM EDTA, and 20% glycerol). Aliquots were frozen in liquid nitrogen and stored at −80° C. The protein preparations were greater than 90% pure.
The EpoK assay was performed as follows. Briefly, reactions consisted of 50 mM Tris (pH7.5), 21 µM spinach ferredoxin, 0.132 units of spinach ferredoxin: NADP^+oxidoreductase, 0.8 units of glucose-6-phosphate dehydrogenase, 1.4 mM NADP, and 7.1 mM glucose-6-phosphate, 100 μM or 200 ,μM epothilone D (a generous gift of S. Danishefsky), and 1.7 ,μM amino terminal his tagged EpoK or 1.6 μM carboxy terminal his-tagged EpoK in a 100 μL volume. The reactions were incubated at 30° C. for 67 minutes and stopped by heating at 90° C. for 2 minutes. The insoluble material was removed by centrifugation, and 50 μL of the supernatant were analyzed by LC/MS. […] In the presence of 200 μM, conversion was 44% and 21%, respectively.

The conditions of data set [4]: Chou et al., 1998; cited from earlier work.
The conditions of data set [5]: Harris et al., 1999; cited from earlier work.

On to `C/C(=C\c1csc(C)n1)[C@@H]1C[C@@H]2O[C@]2(C)CCC[C@H](C)[C@H](O)[C@@H](C)C(=O)C(C)(C)[C@@H](O)CC(=O)O1` [epothilone B], for which the “activity against breast and colon tumor cell lines” value in data set [1] was “noticeable activity and selectivity”. The “cytotoxic activity against eukaryotic cells” value with eukaryotic cells is recorded as “broad cytotoxic activity”.

Take `CC(C)(C(=O)c1cccnc1)c1cccnc1` [metyrapone, 2-methyl-1,2-di-3-pyridyl-1-propanone]: the “epothilone D produced by So ce 90” value in data set [2] (without inhibitor 0.5 mg/L) is on record as 0.1 mg/L. Also, the “epothilone C produced by So ce 90” value in data set [2] (without inhibitor 1.0 mg/L) was found to be 0.5 mg/L. Besides, in data set [2] (without inhibitor 1.7 mg/L), the “epothilone B produced by So ce 90” value worked out at 0.3 mg/L. Further, in data set [2] (without inhibitor 3.6 mg/L), the “epothilone A produced by So ce 90” value is 0.9 mg/L. For the same molecule, the “effect on growth of So ce 90” value in data set [3] is given as “does not detrimentally inhibit the growth”.

Consider `C/C(=C\c1csc(C)n1)[C@@H]1C/C=C\CCC[C@H](C)[C@H](O)[C@@H](C)C(=O)C(C)(C)[C@@H](O)CC(=O)O1` [epothilone C], for which the “cytotoxicity relative to epothilones A and B” value with eukaryotic cells was “less cytotoxic”.

For the molecule `C/C1=C/C[C@@H](/C(C)=C/c2csc(C)n2)OC(=O)C[C@H](O)C(C)(C)C(=O)[C@H](C)[C@@H](O)[C@@H](C)CCC1` [epothilone D], the “conversion of epothilone D to epothilone B” value on EpoK (100 μM epothilone D, 1.6 μM carboxy terminal his-tagged EpoK) was 58%; at EpoK (100 μM epothilone D, 1.7 μM amino terminal his tagged EpoK) it was 82%; on EpoK (200 μM epothilone D, 1.6 μM carboxy terminal his-tagged EpoK), 21%; at EpoK (200 μM epothilone D, 1.7 μM amino terminal his tagged EpoK), 44%. Moreover, the “toxicity among naturally occurring epothilones studied” value in data set [4] is recorded as “lowest toxicity”. In addition, the “efficacy among naturally occurring epothilones studied” value in data set [5] was “greatest efficacy”. In addition, in the data set on eukaryotic cells, the “cytotoxicity relative to epothilones A and B” value is reported as “less cytotoxic”.

In the case of `C/C(=C\c1csc(C)n1)[C@@H]1C[C@@H]2O[C@@H]2CCC[C@H](C)[C@H](O)[C@@H](C)C(=O)C(C)(C)[C@@H](O)CC(=O)O1` [epothilone A], the “activity against breast and colon tumor cell lines” value in data set [1] is “noticeable activity and selectivity”. In addition, the “cytotoxic activity against eukaryotic cells” value in the data set with eukaryotic cells is recorded as “broad cytotoxic activity”.
